Structures are written as SMILES.
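Note: fluorescence intensity readout of USP7 enzymatic activity, reaction incubated 90 min at room temperature.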

For the experiment, the target named is USP7 (Homo sapiens, UniProt Q93009). As to the kind of experiment: biochemical.
Chain of USP7 (Q93009 whole entry): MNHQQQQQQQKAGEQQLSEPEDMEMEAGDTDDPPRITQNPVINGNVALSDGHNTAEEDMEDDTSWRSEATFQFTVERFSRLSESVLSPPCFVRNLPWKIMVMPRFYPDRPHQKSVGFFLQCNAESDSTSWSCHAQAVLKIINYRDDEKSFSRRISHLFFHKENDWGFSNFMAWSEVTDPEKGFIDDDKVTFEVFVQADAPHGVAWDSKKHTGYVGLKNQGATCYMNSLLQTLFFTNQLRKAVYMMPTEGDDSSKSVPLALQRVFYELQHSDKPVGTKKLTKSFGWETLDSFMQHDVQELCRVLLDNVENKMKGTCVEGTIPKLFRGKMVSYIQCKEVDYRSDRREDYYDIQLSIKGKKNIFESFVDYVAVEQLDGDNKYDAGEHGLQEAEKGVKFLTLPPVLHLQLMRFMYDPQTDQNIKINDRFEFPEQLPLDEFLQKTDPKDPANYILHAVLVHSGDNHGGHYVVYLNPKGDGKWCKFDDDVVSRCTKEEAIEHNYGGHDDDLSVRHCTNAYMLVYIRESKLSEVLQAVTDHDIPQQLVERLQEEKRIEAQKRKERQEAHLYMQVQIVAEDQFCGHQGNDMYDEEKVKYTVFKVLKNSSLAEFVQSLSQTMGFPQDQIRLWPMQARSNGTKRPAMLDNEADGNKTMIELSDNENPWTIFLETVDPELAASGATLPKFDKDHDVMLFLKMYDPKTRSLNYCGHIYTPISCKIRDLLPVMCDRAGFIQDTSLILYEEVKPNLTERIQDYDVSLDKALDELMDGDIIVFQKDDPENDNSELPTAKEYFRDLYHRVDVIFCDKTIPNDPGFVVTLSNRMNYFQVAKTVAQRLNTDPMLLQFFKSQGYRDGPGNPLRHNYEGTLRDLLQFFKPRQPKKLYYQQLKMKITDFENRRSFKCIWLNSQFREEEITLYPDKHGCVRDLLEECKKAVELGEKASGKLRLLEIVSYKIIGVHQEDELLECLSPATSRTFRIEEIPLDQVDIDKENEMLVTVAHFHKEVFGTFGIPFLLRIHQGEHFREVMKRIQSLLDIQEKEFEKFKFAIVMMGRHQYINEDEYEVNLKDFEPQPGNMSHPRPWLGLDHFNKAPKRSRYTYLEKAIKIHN
Procedure: Example A. Biochemical Assay of USP7 Inhibitor Potency (IC50)
Fluorescence intensity assay of USP7 activity in the presence USP7 inhibitors. Recombinant USP7 protein (catalogue number E-519) and the fluorescence substrate ubiquitin-rhodamine 110 (Rh110) (catalogue number U-555) were purchased from Boston Biochem (840 Memorial Drive, Cambridge, MA 02139). The reaction was carried out in buffer 20 mM HEPES, pH 7.3, 150 mM NaCl, 1 mM TCEP, 125 μg/mL BSA at room temperature in a black 384-well Microplate (Greiner, catalog number 781076).
Test compounds were dissolved in DMSO to make 50 mM stock solution. […] In wells of a black 384-well Microplate, 15 μl of 100 pM of USP7 enzyme was added to each well with pre-diluted compounds and incubated at room temperature for 30 minutes, followed by addition of 10 μl of ubiquitin-rhodamine 110 (Rh110) substrate to reach 160 nM final concentration. The reaction mixtures were incubated for additional 90 minutes at room temperature. The fluorescence signal of the digested substrate was measured on an EnVision microplate reader (PerkinElmer,), using excitation at 485 nm and emission at 535 nm. The IC50 values were calculated using XLfit software.
The term IC50 denotes the midpoint of a concentration-inhibition curve. In turn, `C[C@]1(CO)C[C@H](N2CCCc3cc(Cl)cc(-c4cc[n+]([O-])c5cc(CN6C(=O)CCC6=O)sc45)c32)CN1` [Example 208, 7-(6-chloro-1-((3S,5R)-5-(hydroxymethyl)-5-methylpyrrolidin-3-yl)-1,2,3,4-tetrahydroquinolin-8-yl)-2-((2,5-dioxopyrrolidin-1-yl)methyl)thieno[3,2-b]pyridine 4-oxide] showed a concentration for half-maximal inhibition (IC50) of less than 10 nM.

Consider `C[C@]1(CO)C[C@H](N2CCCc3cc(C#N)cc(-c4ccnc5cc(CN6C(=O)CCC6=O)sc45)c32)CN1` [Example 209, 8-(2-((2,5-dioxopyrrolidin-1-yl)methyl)thieno[3,2-b]pyridin-7-yl)-1-((3S,5R)-5-(hydroxymethyl)-5-methylpyrrolidin-3-yl)-1,2,3,4-tetrahydroquinoline-6-carbonitrile], for which the concentration for half-maximal inhibition (IC50) was less than 10 nM. The figure for `C[C@]1(CO)C[C@H](N2CCCc3cc(Cl)cc(-c4ccnc5c(F)c(CN6C(=O)CCC6=O)sc45)c32)CN1` [Example 210, 1-[[7-[6-chloro-1-[(3S,5R)-5-(hydroxymethyl)-5-methyl-pyrrolidin-3-yl]-3,4-dihydro-2H-quinolin-8-yl]-3-fluoro-thieno[3,2-b]pyridin-2-yl]methyl]pyrrolidine-2,5-dione] is less than 10 nM; for `O=C1CCC(=O)N1Cc1cc2nccc(-c3cc(Cl)cc4c3N(C3CNC5(CC(F)C5)C3)CCC4)c2s1` (stereo not shown) [Example 211, 1-((7-(6-chloro-1-(2-fluoro-5-azaspiro[3.4]octan-7-yl)-1,2,3,4-tetrahydroquinolin-8-yl)thieno[3,2-b]pyridin-2-yl)methyl)pyrrolidine-2,5-dione] it is less than 10 nM. `O=C1C2CC2C(=O)N1Cc1cc2nccc(-c3cc(Cl)cc4c3N([C@@H]3CN[C@@H](CO)C3)CCO4)c2s1` (stereo partly drawn) [Example 214, 3-((7-(7-chloro-4-((3S,5R)-5-(hydroxymethyl)pyrrolidin-3-yl)-3,4-dihydro-2H-benzo[b][1,4]oxazin-5-yl)thieno[3,2-b]pyridin-2-yl)methyl)-3-azabicyclo[3.1.0]hexane-2,4-dione] showed an IC50 of less than 10 nM. The figure for `N#Cc1cc2c(c(-c3ccnc4cc(CN5C(=O)C6CC6C5=O)sc34)c1)N([C@@H]1CN[C@@H](CO)C1)CCO2` (stereo partly drawn) [Example 215, 5-(2-((2,4-dioxo-3-azabicyclo[3.1.0]hexan-3-yl)methyl)thieno[3,2-b]pyridin-7-yl)-4-((3S,5R)-5-(hydroxymethyl)pyrrolidin-3-yl)-3,4-dihydro-2H-benzo[b][1,4]oxazine-7-carbonitrile] is less than 10 nM. As for `Cc1cnn(Cc2cc3nccc(-c4cc(Cl)cc5c4N([C@@H]4CN[C@@H](CO)C4)CCO5)c3s2)c(=O)c1` [Example 216, 2-((7-(7-chloro-4-((3S,5R)-5-(hydroxymethyl)pyrrolidin-3-yl)-3,4-dihydro-2H-benzo[b][1,4]oxazin-5-yl)thieno[3,2-b]pyridin-2-yl)methyl)-5-methylpyridazin-3(2H)-one], the IC50 is less than 10 nM. `CC(C)(C)c1cnn(Cc2cc3nccc(-c4cc(C#N)cc5c4N([C@@H]4CN[C@@H](CO)C4)CCO5)c3s2)c(=O)c1` [Example 217, 5-(2-((4-(tert-butyl)-6-oxopyridazin-1(6H)-yl)methyl)thieno[3,2-b]pyridin-7-yl)-4-((3S,5R)-5-(hydroxymethyl)pyrrolidin-3-yl)-3,4-dihydro-2H-benzo[b][1,4]oxazine-7-carbonitrile] registered an IC50 of less than 10 nM.

Regarding `CC1(C)C2C(=O)N(Cc3cc4nccc(-c5cc(C#N)cc6c5N([C@@H]5CN[C@@](C)(CO)C5)CCO6)c4s3)C(=O)C21` (stereo partly drawn) [Example 220, 5-(2-((6,6-dimethyl-2,4-dioxo-3-azabicyclo[3.1.0]hexan-3-yl)methyl)thieno[3,2-b]pyridin-7-yl)-4-((3S,5R)-5-(hydroxymethyl)-5-methylpyrrolidin-3-yl)-3,4-dihydro-2H-benzo[b][1,4]oxazine-7-carbonitrile], the IC50 was less than 10 nM. Then `CC(C)(C)c1cnn(Cc2cc3nccc(-c4cc(C#N)cc5c4N([C@@H]4CN[C@@](C)(CO)C4)CCO5)c3s2)c(=O)c1` [Example 221, 5-[2-[(4-tert-butyl-6-oxo-pyridazin-1-yl)methyl]thieno[3,2-b]pyridin-7-yl]-4-[(3S,5R)-5-(hydroxymethyl)-5-methyl-pyrrolidin-3-yl]-2,3-dihydro-1,4-benzoxazine-7-carbonitrile], with less than 10 nM; and `C[C@]1(CO)C[C@H](N2CCOc3cc(C#N)cc(-c4ccnc5cc(Cn6ncc(C7(C(F)(F)F)CC7)cc6=O)sc45)c32)CN1` [Example 222, 4-[(3S,5R)-5-(hydroxymethyl)-5-methyl-pyrrolidin-3-yl]-5-[2-[[6-oxo-4-[1-(trifluoromethyl)cyclopropyl]pyridazin-1-yl]methyl]thieno[3,2-b]pyridin-7-yl]-2,3-dihydro-1,4-benzoxazine-7-carbonitrile], with less than 10 nM; and `C[C@]1(CO)C[C@H](N2CCOc3cc(C#N)cc(-c4cc[n+]([O-])c5cc(Cn6ncc(C7(C(F)(F)F)CC7)cc6=O)sc45)c32)CN1` [Example 223, 7-(7-cyano-4-((3S,5R)-5-(hydroxymethyl)-5-methylpyrrolidin-3-yl)-3,4-dihydro-2H-benzo[b][1,4]oxazin-5-yl)-2-((6-oxo-4-(1-(trifluoromethyl)cyclopropyl)pyridazin-1(6H)-yl)methyl)thieno[3,2-b]pyridine 4-oxide], with 10 to 100 nM. Regarding `C[C@]1(CO)C[C@H](N2CCOc3cc(C(F)(F)F)cc(-c4ccnc5cc(CN6C(=O)CCC6=O)sc45)c32)CN1` [Example 224, 1-((7-(4-((3S,5R)-5-(hydroxymethyl)-5-methylpyrrolidin-3-yl)-7-(trifluoromethyl)-3,4-dihydro-2H-benzo[b][1,4]oxazin-5-yl)thieno[3,2-b]pyridin-2-yl)methyl)pyrrolidine-2,5-dione], the half-inhibitory concentration (IC50) is less than 10 nM. `CC(C)(C)c1cnn(Cc2cc3nccc(-c4cc(C#N)cc5c4N([C@@H]4CN[C@@](C)(CO)C4)C(=O)CO5)c3s2)c(=O)c1` [Example 225, 5-(2-((4-(tert-butyl)-6-oxopyridazin-1(6H)-yl)methyl)thieno[3,2-b]pyridin-7-yl)-4-((3S,5R)-5-(hydroxymethyl)-5-methylpyrrolidin-3-yl)-3-oxo-3,4-dihydro-2H-benzo[b][1,4]oxazine-7-carbonitrile] had a half-maximal inhibitory concentration (IC50) of less than 10 nM. The figure for `C[C@]1(CO)C[C@H](N2C(=O)COc3cc(C#N)cc(-c4ccnc5cc(Cn6ncc(C7(C(F)(F)F)CC7)cc6=O)sc45)c32)CN1` [Example 226, 4-[(3S,5R)-5-(hydroxymethyl)-5-methyl-pyrrolidin-3-yl]-3-oxo-5-[2-[[6-oxo-4-[1-(trifluoromethyl)cyclopropyl]pyridazin-1-yl]methyl]thieno[3,2-b]pyridin-7-yl]-1,4-benzoxazine-7-carbonitrile] is less than 10 nM; for `O=C1CCC(=O)N1Cc1cc2nccc(-c3cc(Cl)cc4c3N(c3cn[nH]c3)C(=O)CC4)c2s1` [Example 228, 1-((7-(6-chloro-2-oxo-1-(1H-pyrazol-4-yl)-1,2,3,4-tetrahydroquinolin-8-yl)thieno[3,2-b]pyridin-2-yl)methyl)pyrrolidine-2,5-dione] it is 101 to 1000 nM.

For the origin of these results see patent US20240158412A1 (Faxian Therapeutics, LLC, priority 2021, published 2024).
